Patent US20180148418A1, “AMIDO-SUBSTITUTED CYCLOHEXANE DERIVATIVES” (Bayer Pharma Aktiengesellschaft, priority 2015, published 2018)

How the values were obtained:
[1] = test system: wildtype Wnt signaling cascade; experiment: HEK293 TOP assay (Super TopFlash luciferase reporter, Wnt-3a stimulated); type: cell-based; conditions: Homo sapiens, HEK293, 16 h, HEK293 TOP reporter cells, Wnt3a at EC50, 16 hours
Text: 7.1 Measurement of the Inhibitory Activity of Selected Compounds on the Wildtype Wnt Signaling Cascade: HEK293 TOP/FOP Assay
In order to discover and characterize small molecules which inhibit the wildtype Wnt pathway, a cellular reporter assay was employed. The corresponding assay cell was generated by transfection of the mammalian cell line HEK293 (ATCC, #CRL-1573) with the Super TopFlash vector (Morin, Science 275, 1997, 1787-1790; Molenaar et al., Cell 86 (3), 1996, 391-399). The HEK293 cell line is cultivated at 37° C. and 5% CO2 in DMEM (Life Technologies, #41965-039), supplemented with 2 mM glutamine, 20 mM HEPES, 1.4 mM pyruvate, 0.15% Na-bicarbonate and 10% foetal bovine serum (GIBCO, #10270). Stable transfectants were generated by selection with 300 μg/ml Hygromycin.
(§1) In preparation of the assay, the two cell lines were plated 24 h before beginning the test at 10000 cells per well in a 384 micro titre plate (MTP) in 30 μl growth medium. […] The recombinant human Wnt-3a was thereby applied between 2500 and 5 ng/ml in two-fold dilution steps.
(§2) Selective inhibitory activity for small molecules on the wildtype Wnt pathway was determined after parallel incubation of both (TOP and FOP) HEK293 reporter cell lines with a compound dilution series from 50 μM to 15 nM in steps of 3.16-fold dilutions in CAFTY buffer (130 mM sodium chloride, 5 mM potassium chloride, 20 mM HEPES, 1 mM magnesium chloride, 5 mM sodium bicarbonate, pH 7.4) containing 2 mM Ca^2+ and 0.01% BSA.
(§3) The compounds were thereby serially prediluted in 100% DMSO and thereafter 50 fold into the CAFTY compound dilution buffer (described above).

[2] = test system: HEK293 cells cotransfected with the FOP control vector; experiment: HEK293 FOP assay (control reporter with non-functional TCF elements); type: cell-based; conditions: Homo sapiens, 16 hours
Method: In a parallel approach, HEK293 cells were cotransfected with the FOP control vector and pcDNA3. The FOP vector is identical to the TOP construct, but it contains instead of functional TCF elements a randomized, non-functional sequence. For this transfection a stable transfected cell line was generated as well, based on selection with Geneticin (1 mg/ml).
as §1, §2, §3

TNKS2 = target: T1, TNKS2 (Homo sapiens, UniProt Q9H2K2); experiment: TNKS2 Assay B (auto-parsylation, [3H]-NAD+ SPA); type: biochemical; conditions: 6 nM TNKS2, auto-parsylation, over night at room temperature
T1 construct: purchased BPS Bioscience, San Diego, USA 80572 (TNKS2 Histone Ribosylation Assay Kit)
T1 sequence (Q9H2K2 1-1166): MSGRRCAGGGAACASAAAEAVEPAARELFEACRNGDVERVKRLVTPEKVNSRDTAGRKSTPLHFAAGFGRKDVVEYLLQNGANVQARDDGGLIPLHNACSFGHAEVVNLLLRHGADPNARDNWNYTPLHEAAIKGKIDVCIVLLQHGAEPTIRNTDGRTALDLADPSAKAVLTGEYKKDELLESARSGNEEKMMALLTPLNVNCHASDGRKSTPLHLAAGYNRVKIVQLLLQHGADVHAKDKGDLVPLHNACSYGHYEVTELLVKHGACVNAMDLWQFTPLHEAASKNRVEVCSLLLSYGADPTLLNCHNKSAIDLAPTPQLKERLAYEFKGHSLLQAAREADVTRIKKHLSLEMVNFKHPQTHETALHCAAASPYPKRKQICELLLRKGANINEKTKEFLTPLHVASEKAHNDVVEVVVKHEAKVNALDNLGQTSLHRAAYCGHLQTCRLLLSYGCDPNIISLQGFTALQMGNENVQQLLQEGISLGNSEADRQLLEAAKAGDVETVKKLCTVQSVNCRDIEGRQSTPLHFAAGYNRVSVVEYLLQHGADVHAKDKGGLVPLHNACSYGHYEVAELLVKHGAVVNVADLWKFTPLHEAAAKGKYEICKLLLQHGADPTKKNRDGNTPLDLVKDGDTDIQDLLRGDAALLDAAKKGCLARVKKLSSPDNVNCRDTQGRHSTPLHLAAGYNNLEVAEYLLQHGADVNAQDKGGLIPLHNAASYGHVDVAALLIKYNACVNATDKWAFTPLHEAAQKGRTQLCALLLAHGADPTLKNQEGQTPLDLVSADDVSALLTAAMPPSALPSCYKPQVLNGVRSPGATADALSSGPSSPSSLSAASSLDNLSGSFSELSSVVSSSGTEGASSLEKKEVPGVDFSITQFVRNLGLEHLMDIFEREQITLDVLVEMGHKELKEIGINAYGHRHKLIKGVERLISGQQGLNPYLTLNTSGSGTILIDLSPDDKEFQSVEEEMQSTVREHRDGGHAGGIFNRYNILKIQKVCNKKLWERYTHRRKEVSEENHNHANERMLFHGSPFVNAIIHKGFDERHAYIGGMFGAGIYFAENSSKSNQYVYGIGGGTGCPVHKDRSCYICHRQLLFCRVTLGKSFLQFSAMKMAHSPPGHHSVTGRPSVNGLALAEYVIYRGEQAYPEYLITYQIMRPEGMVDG
Method: The potency of selected compounds according to the invention was assessed applying a modified in vitro inhibition assay. Here, the TNKS2 catalyzed NAD^+-dependent ribosylation of the enzyme itself (auto-parsylation) was detected using [^3H]-NAD^+ as substrate and applying the scintillation proximity assay (SPA) method to detect tritium-labeled, parsylated TNKS2. The intensity of the readout signal is proportional to the incorporated [^3H]-NAD^+. Inhibition of TNKS2 leads to a decreased incorporation of [^3H]-NAD^+ and consequently to a lower readout signal intensity. The concentration of a test compound which inhibits the enzyme activity by 50% (corresponds to half of the normed readout signal intensity) is reported as IC50.
Protocol Auto-Parsylation Assay
The assay was conducted in a 96 well MTP format with the identical TNKS2 enzyme sample and NAD^+ sample as in the histone ribosylation assay with the following modifications: TNKS2 enzyme sample was diluted with a modified assay buffer (50 mM MES pH 7.0, 1 mM DTT, 0.01% Triton X-100) to a final concentration of 6 nM TNKS2 and 10×NAD^+ solution was diluted with the modified assay buffer (s. above) to a final 0.445×NAD^+ solution doped with 100 Bq/μl [^3H]-NAD^+[Catalog #NET443H050UC, Perkin Elmer, Waltham, Mass., USA]. Substrate solution (10 μl) was incubated with different test compound concentrations (2.5 μl in 10% DMSO in modified assay buffer) or control (2.5 μl 10% DMSO in modified assay buffer only) and enzyme (10 μl) over night at room temperature. Incorporated tritium was measured after addition of 50 ul SPA beads (1 mg/ml) [Catalog #RPNQ0095 20 mg/ml, Perkin Elmer, Waltham, Mass., USA; diluted 1:10 with Dulbecco's phosphate buffered saline, PBS Catalog #D8537, Sigma-Aldrich, Steinheim, Germany] and detection of the photon emission with a beta count plate reader [Wallac MicroBeta®, Perkin Elmer, Waltham, Mass., USA].

Structure (SMILES) | IC50 [1] [nM] | IC50 [2] [nM] | IC50 (TNKS2) [nM]
Cc1cc(C)n2ncc(C(=O)N[C@H]3CC[C@]4(CCN(c5ccc(F)cc5Cl)C4=O)CC3)c2n1 [Example 207, N-[(cis)-2-(2-chloro-4-fluorophenyl)-1-oxo-2-azaspiro[4.5]dec-8-yl]-5,7-dimethylpyrazolo[1,5-a]pyrimidine-3-carboxamide] | 3500 | ≥ 50000 | > 10000
COCc1cc(C)nc2c(C(=O)N[C@H]3CC[C@@]4(CCN(c5ccc(F)cc5Cl)C4=O)CC3)cnn12 [Example 219, N-[(trans)-2-(2-chloro-4-fluorophenyl)-1-oxo-2-azaspiro[4.5]dec-8-yl]-7-(methoxymethyl)-5-methylpyrazolo[1,5-a]pyrimidine-3-carboxamide] | 5.6 | ≥ 500 | 7.5
COCc1cc(C)n2ncc(C(=O)N[C@H]3CC[C@@]4(CCN(c5ccc(F)cc5Cl)C4=O)CC3)c2n1 [Example 220, N-[(trans)-2-(2-chloro-4-fluorophenyl)-1-oxo-2-azaspiro[4.5]dec-8-yl]-5-(methoxymethyl)-7-methylpyrazolo[1,5-a]pyrimidine-3-carboxamide] | 2.6 | 38000 | 10
O=C(N[C@H]1CC[C@@]2(CCN(c3ccc(F)cc3Cl)C2=O)CC1)c1cnc2ccccn12 [Example 223, N-[(trans)-2-(2-chloro-4-fluorophenyl)-1-oxo-2-azaspiro[4.5]dec-8-yl]imidazo[1,2-a]pyridine-3-carboxamide] | 270 | ≥ 50000 | 1200
Cc1cc(C)n2nc(C)c(C(=O)N[C@H]3CC[C@@]4(CCN(c5ccc(F)cc5Cl)C4=O)CC3)c2n1 [Example 227, N-[(trans)-2-(2-chloro-4-fluorophenyl)-1-oxo-2-azaspiro[4.5]dec-8-yl]-2,5,7-trimethylpyrazolo[1,5-a]pyrimidine-3-carboxamide] | 88 | ≥ 50000 | 150
O=C(N[C@H]1CC[C@@]2(CCN(c3ccc(F)cc3Cl)C2=O)CC1)c1n[nH]c2cccnc12 [Example 228, N-[(trans)-2-(2-chloro-4-fluorophenyl)-1-oxo-2-azaspiro[4.5]dec-8-yl]-1H-pyrazolo[4,3-b]pyridine-3-carboxamide] | 60 | ≥ 500 | 420
O=C(N[C@H]1CC[C@@]2(CCN(c3ccc(F)cc3Cl)C2=O)CC1)c1cnn2ccccc12 [Example 230, N-[(trans)-2-(2-chloro-4-fluorophenyl)-1-oxo-2-azaspiro[4.5]dec-8-yl]pyrazolo[1,5-a]pyridine-3-carboxamide] | 30 | ≥ 500 | 280
O=C(N[C@H]1CC[C@@]2(CCN(c3ccc(F)cc3Cl)C2=O)CC1)c1cnn2ccc(N3CCOCC3)nc12 [Example 231, N-[(trans)-2-(2-chloro-4-fluorophenyl)-1-oxo-2-azaspiro[4.5]dec-8-yl]-5-(morpholin-4-yl)pyrazolo[1,5-a]pyrimidine-3-carboxamide] | 8 | ≥ 500 | 3.8
O=C(N[C@H]1CC[C@@]2(CCN(c3ccc(F)cc3Cl)C2=O)CC1)c1cnn2ccc(O)nc12 [Example 234, N-[(trans)-2-(2-chloro-4-fluorophenyl)-1-oxo-2-azaspiro[4.5]dec-8-yl]-5-hydroxypyrazolo[1,5-a]pyrimidine-3-carboxamide] | 590 | ≥ 50000 | 210
O=C(N[C@H]1CC[C@@]2(CCN(c3ccc(F)cc3Cl)C2=O)CC1)c1cnn2c(O)ccnc12 [Example 235, N-[(trans)-2-(2-chloro-4-fluorophenyl)-1-oxo-2-azaspiro[4.5]dec-8-yl]-7-hydroxypyrazolo[1,5-a]pyrimidine-3-carboxamide] | 230 | ≥ 500 | 29
O=C(N[C@H]1CC[C@@]2(CCN(c3ccc(F)cc3Cl)C2=O)CC1)c1c[nH]c2cccnc12 [Example 236, N-[(trans)-2-(2-chloro-4-fluorophenyl)-1-oxo-2-azaspiro[4.5]dec-8-yl]-1H-pyrrolo[3,2-b]pyridine-3-carboxamide] | 350 | ≥ 50000 | 19
COCCc1cnc2c(C(=O)N[C@H]3CC[C@@]4(CCN(c5ccc(F)cc5Cl)C4=O)CC3)cnn2c1 [Example 237, N-[(trans)-2-(2-chloro-4-fluorophenyl)-1-oxo-2-azaspiro[4.5]dec-8-yl]-6-(2-methoxyethyl)pyrazolo[1,5-a]pyrimidine-3-carboxamide] | 0.14 | ≥ 50000 | 8.9
O=C(N[C@H]1CC[C@@]2(CCN(c3ccccc3)C2=O)CC1)c1cnn2cccnc12 [Example 238, N-[(trans)-1-oxo-2-phenyl-2-azaspiro[4.5]dec-8-yl]pyrazolo[1,5-a]pyrimidine-3-carboxamide] | 43 | ≥ 500 | 400
Cc1cc(C)n2ncc(C(=O)N[C@H]3CC[C@@]4(CCN(c5ccccc5)C4=O)CC3)c2n1 [Example 239, 5,7-dimethyl-N-[(trans)-1-oxo-2-phenyl-2-azaspiro[4.5]dec-8-yl]pyrazolo[1,5-a]pyrimidine-3-carboxamide] | 73 | ≥ 500 | 570
